Test results: PMC7096432, “Transport and kinase activities of CbrA of Pseudomonas putida KT2440” (Scientific Reports, 2020)
Each block holds one molecule with its values, some of them ahead of it.

What was measured:
PAS domain of CbrA [1] = target: T1, PAS domain of CbrA (Pseudomonas putida, UniProt Q88DX3); test: thermal shift, nanoDSF; format: binding; settings: read-out: dTm at 1 mM
T1 construct: gene PP_4695; PAS domain, residues 614-745, C-terminal 12His tag, E. coli BL21 / C43, Ni-NTA purified
T1 sequence (Q88DX3 614-745): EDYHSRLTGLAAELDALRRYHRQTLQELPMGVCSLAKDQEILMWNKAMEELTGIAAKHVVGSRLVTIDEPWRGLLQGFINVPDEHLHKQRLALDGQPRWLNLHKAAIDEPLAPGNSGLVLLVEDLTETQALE

CbrA = target: T2, CbrA (Pseudomonas putida, UniProt Q88DX3); test: DRaCALA, E. coli C43 membrane vesicles; format: binding; settings: 1.35 µM ligand, 100 mM KPi pH 7.5, 25 °C; labelled compound
T2 construct: gene PP_4695; full length, 109 kDa predicted
T2 sequence (Q88DX3 1-991): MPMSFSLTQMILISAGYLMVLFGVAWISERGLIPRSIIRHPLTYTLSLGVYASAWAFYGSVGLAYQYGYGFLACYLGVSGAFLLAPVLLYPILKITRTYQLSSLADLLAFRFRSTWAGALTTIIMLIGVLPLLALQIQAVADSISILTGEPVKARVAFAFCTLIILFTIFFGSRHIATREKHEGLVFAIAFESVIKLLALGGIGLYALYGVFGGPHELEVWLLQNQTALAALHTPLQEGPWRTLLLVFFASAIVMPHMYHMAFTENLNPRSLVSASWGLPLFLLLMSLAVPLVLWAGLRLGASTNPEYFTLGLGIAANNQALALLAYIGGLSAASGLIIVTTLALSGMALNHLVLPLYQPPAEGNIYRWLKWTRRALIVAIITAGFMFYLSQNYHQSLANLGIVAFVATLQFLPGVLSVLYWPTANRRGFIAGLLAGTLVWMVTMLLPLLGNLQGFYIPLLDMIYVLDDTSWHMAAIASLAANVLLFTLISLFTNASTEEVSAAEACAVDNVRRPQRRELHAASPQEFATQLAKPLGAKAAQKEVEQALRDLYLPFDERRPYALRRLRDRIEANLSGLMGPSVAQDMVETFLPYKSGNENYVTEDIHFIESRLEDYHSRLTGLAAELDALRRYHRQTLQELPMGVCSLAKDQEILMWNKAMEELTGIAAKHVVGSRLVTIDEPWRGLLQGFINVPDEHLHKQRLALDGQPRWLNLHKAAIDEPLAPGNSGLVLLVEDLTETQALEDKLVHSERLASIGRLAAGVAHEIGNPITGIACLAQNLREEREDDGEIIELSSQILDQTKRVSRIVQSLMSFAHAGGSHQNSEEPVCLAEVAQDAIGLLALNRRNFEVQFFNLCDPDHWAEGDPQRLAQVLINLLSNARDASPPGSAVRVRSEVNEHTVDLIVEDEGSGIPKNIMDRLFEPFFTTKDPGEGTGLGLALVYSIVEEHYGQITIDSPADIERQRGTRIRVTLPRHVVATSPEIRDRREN

SLC5 domain of CbrA = target: T3, SLC5 domain of CbrA (Pseudomonas putida, UniProt Q88DX3); test: DRaCALA, E. coli C43 membrane vesicles; format: binding; settings: 1.35 µM ligand, 100 mM KPi pH 7.5, 25 °C; labelled compound
T3 construct: gene PP_4695; SLC5 transporter domain, residues 3-544
T3 sequence (Q88DX3 3-544): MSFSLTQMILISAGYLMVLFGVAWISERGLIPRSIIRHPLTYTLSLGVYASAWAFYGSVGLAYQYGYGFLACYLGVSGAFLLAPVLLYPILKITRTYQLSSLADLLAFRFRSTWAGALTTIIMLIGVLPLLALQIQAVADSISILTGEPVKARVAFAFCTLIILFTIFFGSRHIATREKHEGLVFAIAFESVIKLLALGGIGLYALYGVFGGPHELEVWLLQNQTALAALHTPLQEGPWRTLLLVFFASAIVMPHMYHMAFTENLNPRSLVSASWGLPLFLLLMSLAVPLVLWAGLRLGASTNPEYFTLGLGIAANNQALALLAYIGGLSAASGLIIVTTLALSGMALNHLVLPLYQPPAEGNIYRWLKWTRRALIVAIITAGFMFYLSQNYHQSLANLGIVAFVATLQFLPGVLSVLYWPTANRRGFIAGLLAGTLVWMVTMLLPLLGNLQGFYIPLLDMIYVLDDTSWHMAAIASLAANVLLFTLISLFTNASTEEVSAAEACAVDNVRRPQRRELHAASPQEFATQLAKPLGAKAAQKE

PAS domain of CbrA [2] = target: T1, PAS domain of CbrA; test: thermal shift titration, nanoDSF; format: binding
CbrAΔSLC5 = target: T4, CbrAΔSLC5 (Pseudomonas putida, UniProt Q88DX3); test: autophosphorylation, SDS-PAGE; format: biochemical; settings: 50 mM Tris-HCl pH 7.5, 10 mM MgCl2, 360 mM KCl, 30 °C; labelled compound
T4 construct: gene PP_4695; cytoplasmic domains, residues 614-992, C-terminal 12His tag, 44 kDa predicted, E. coli C41, Ni-NTA purified
T4 sequence (Q88DX3 614-991): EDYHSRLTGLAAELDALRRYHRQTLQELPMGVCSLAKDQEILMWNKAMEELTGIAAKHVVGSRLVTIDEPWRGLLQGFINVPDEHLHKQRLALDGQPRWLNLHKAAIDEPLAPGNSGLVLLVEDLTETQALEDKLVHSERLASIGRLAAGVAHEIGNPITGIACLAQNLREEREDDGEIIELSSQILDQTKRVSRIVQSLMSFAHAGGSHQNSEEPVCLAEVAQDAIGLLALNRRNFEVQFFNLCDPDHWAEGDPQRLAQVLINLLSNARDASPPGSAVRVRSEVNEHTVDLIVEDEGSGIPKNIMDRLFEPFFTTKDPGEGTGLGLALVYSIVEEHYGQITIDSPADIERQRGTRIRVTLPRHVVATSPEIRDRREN

[3] = substrate: N[C@@H](Cc1c[nH]cn1)C(=O)O; test: 3H-L-histidine uptake into P. putida LW1 cells; format: cell-based, Pseudomonas putida; settings: transport, 100 mM Tris/MES pH 6.0, 25 °C, energized with 10 mM D-lactate, background subtracted, labelled compound

ΔTm at 1000 µM (PAS domain of CbrA [1]): 0.73 ± 0.13 °C | Kd (PAS domain of CbrA [2]): 43 ± 13 µM
Molecule: N[C@@H](Cc1cnc[nH]1)C(=O)O [L-histidine]
bound fraction (CbrA): evidence for binding of ^3H-L-histidine to CbrA and the SLC5 domain | bound fraction (SLC5 domain of CbrA): evidence for binding of ^3H-L-histidine to CbrA and the SLC5 domain

Molecule: Nc1ncnc2c1ncn2[C@@H]1O[C@H](COP(=O)(O)OP(=O)(O)OP(=O)(O)O)[C@@H](O)[C@H]1O [γ-32P-ATP]
autophosphorylation, 32P SDS-PAGE (CbrAΔSLC5): catalyzed both autophosphorylation and transfer of the phosphoryl group to CbrB

B1: SLC5 domain of CbrA (Pseudomonas putida KT2440) (protein)
chain: T3 sequence (Q88DX3 3-544)
notes: SLC5 transporter domain, residues 3-544
Km [3]: 0.58 ± 0.18 µM

B2: CbrA (Pseudomonas putida KT2440) (protein)
chain: T2 sequence (Q88DX3 1-991)
notes: full length, 109 kDa predicted
Km [3]: 0.7 ± 0.2 µM
